# Key:
# HDAC1 = target: T1, HDAC1 (Homo sapiens, UniProt Q13547); assay: HDAC enzyme activity inhibition (in vitro), HDAC1 Fluorimetric Drug Discovery Assay Kit; format: biochemical; conditions: samples at 100, 1000 and 10000 nM; 37° C. 60 minutes; fluorescence Ex 390, Em 460; read-out: HDAC1 IC50
# T1 construct: purchased Enzolifesciences BML-AK511
# Protocol: <Experimental Example 1> Identification of HDAC Enzyme Activity Inhibition (In Vitro)
# A selective HDAC6 inhibitor is important for selectivity of HDAC1 inhibition, which is a cause of side effects, and thus HDAC1/6 enzyme selectivity and cell selectivity (HDAC1: histone acetylation/HDAC6: tubulin acetylation) were identified.
# (§1) A HDAC enzyme inhibitory capacity of a test material was measured by using HDAC1 Fluorimetric Drug Discovery Assay Kit (Enzolifesciences: BML-AK511) and HDAC6 human recombinant (Calbiochem: 382180). For a HDAC1 assay, samples were treated at a concentration of 100, 1000 and 10000 nM. For a HDAC6 assay, samples were treated at a concentration of 0.1, 1, 10, 100 and 1000 nM. After the above sample treatment, a reaction was continued at 37° C. for 60 minutes, then treated with a developer, and then subjected to a reaction at 37° C. for 30 minutes, after which fluorescence intensity (Ex 390, Em 460) was measured by using FlexStatin3 (Molecular device).
# HDAC6 human recombinant = target: T2, HDAC6 human recombinant (Homo sapiens, UniProt Q9UBN7); assay: HDAC enzyme activity inhibition (in vitro), HDAC6 assay; format: biochemical; conditions: samples at 0.1, 1, 10, 100 and 1000 nM; 37° C. 60 minutes; fluorescence Ex 390, Em 460; read-out: HDAC6 IC50
# T2 construct: purchased Calbiochem 382180
# T2 sequence (Q9UBN7 1-1215): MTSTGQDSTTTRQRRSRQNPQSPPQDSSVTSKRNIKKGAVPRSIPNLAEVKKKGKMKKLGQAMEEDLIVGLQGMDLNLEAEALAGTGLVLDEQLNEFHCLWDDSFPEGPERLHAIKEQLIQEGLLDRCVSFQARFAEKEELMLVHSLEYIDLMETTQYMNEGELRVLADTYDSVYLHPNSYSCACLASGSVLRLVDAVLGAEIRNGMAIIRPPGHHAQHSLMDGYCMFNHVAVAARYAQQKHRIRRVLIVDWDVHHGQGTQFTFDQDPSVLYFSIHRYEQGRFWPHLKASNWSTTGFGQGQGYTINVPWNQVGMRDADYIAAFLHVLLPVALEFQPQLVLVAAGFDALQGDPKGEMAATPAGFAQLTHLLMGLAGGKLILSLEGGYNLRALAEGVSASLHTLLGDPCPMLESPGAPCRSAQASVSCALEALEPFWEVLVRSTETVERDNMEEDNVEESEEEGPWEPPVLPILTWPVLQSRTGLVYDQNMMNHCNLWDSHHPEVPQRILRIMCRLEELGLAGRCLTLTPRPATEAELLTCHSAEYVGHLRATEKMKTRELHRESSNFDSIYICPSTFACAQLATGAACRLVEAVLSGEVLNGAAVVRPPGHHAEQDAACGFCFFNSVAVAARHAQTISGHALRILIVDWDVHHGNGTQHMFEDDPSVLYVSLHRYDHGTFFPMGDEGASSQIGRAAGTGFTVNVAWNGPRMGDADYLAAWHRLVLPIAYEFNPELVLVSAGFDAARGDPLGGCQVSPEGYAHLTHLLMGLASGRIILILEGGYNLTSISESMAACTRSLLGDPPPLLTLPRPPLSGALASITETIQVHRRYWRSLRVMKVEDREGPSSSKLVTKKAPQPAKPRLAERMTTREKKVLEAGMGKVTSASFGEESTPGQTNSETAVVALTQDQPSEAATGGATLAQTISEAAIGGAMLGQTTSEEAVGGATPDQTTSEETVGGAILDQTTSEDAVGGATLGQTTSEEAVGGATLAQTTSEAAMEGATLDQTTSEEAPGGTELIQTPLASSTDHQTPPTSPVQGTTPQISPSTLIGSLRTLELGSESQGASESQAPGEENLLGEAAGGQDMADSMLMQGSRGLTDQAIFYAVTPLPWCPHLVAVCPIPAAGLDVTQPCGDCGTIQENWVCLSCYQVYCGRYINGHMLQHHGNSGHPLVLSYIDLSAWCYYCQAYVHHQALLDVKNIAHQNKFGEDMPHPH
# Protocol: as §1, with “For a HDAC6 assay, samples were treated at a concentration of 0.1, 1, 10, 100 and 1000 nM.” left out
# T1 sequence (Q13547 whole entry): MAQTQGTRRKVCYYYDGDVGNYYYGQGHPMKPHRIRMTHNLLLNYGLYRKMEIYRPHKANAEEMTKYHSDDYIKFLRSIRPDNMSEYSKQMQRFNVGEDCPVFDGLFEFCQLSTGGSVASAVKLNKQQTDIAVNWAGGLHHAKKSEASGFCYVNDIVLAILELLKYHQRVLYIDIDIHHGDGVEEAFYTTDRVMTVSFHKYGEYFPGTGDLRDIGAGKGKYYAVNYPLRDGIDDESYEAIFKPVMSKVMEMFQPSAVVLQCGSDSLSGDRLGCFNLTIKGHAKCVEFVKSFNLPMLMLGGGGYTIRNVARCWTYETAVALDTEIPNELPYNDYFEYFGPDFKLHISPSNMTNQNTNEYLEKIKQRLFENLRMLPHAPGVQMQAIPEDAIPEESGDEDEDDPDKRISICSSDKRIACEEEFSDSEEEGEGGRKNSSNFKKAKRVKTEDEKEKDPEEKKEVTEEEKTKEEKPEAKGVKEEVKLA
SMILES,IC50 (HDAC1) [nM],IC50 (HDAC6 human recombinant) [nM]
"O=c1n(Cc2ccc(-c3nnc(C(F)F)o3)cc2F)c2ccccc2n1C1CCS(=O)(=O)CC1 [Compound 35, 1-(4-(5-(difluoromethyl)-1,3,4-oxadiazole-2-yl)-2-fluorobenzyl)-3-(1,1-dioxydotetrahydro-2H-thiopyran-4-yl)-1,3-dihydro-2H-benzo[d]imidazole-2-one]",> 10000,203
"CN(C)CCn1c(=O)n(Cc2ccc(-c3nnc(C(F)F)o3)cc2F)c2ccccc21 [Compound 36, 1-(4-(5-(difluoromethyl)-1,3,4-oxadiazole-2-yl)-2-fluorobenzyl)-3-(2-(dimethylamino)ethyl)-1,3-dihydro-2H-benzo[d]imidazole-2-one]",> 10000,131
"O=c1n(Cc2ccc(-c3nnc(C(F)F)o3)cc2F)c2ccccc2n1C1COC1 [Compound 37, 1-(4-(5-(difluoromethyl)-1,3,4-oxadiazole-2-yl)-2-fluorobenzyl)-3-(oxetan-3-yl)-1,3-dihydro-2H-benzo[d]imidazole-2-one]",> 10000,158
"O=c1n(Cc2ccc(-c3nnc(C(F)F)o3)cc2F)c2ccccc2n1CC1CCN(C2COC2)CC1 [Compound 39, 1-(4-(5-(difluoromethyl)-1,3,4-oxadiazole-2-yl)-2-fluorobenzyl)-3-((1-(oxetan-3-yl)piperidine-4-yl)methyl)-1,3-dihydro-2H-benzo[d]imidazole-2-one]",> 10000,167
"CCN1CCC(n2c(=O)n(Cc3ccc(-c4nnc(C(F)F)o4)cn3)c3ccc(F)cc32)CC1 [Compound 40, 1-((5-(5-(difluoromethyl)-1,3,4-oxadiazole-2-yl)pyridine-2-yl)methyl)-3-(1-ethylpiperidine-4-yl)-5-fluoro-1,3-dihydro-2H-benzo[d]imidazole-2-one]",> 10000,155
"O=c1n(Cc2ccc(-c3nnc(C(F)F)o3)cn2)c2ccc(F)cc2n1C1CCN(C2COC2)CC1 [Compound 41, 1-((5-(5-(difluoromethyl)-1,3,4-oxadiazole-2-yl)pyridine-2-yl)methyl)-5-fluoro-3-(1-(oxetan-3-yl)piperidine-4-yl)-1,3-dihydro-2H-benzo[d]imidazole-2-one]",> 10000,92
"CC(=O)N1CCC(n2c(=O)n(Cc3ccc(-c4nnc(C(F)F)o4)cn3)c3ccc(F)cc32)CC1 [Compound 42, 3-(1-acetylpiperidine-4-yl)-1-((5-(5-(difluoromethyl)-1,3,4-oxadiazole-2-yl)pyridine-2-yl)methyl)-5-fluoro-1,3-dihydro-2H-benzo[d]imidazole-2-one]",> 10000,106
"CN1CCC(n2c(=O)n(Cc3ccc(-c4nnc(C(F)F)o4)cn3)c3ccc(F)cc32)CC1 [Compound 43, 1-((5-(5-(difluoromethyl)-1,3,4-oxadiazole-2-yl)pyridine-2-yl)methyl)-5-fluoro-3-(1-methylpiperidine-4-yl)-1,3-dihydro-2H-benzo[d]imidazole-2-one]",> 10000,121
"O=c1n(Cc2ccc(-c3nnc(C(F)F)o3)cn2)c2ccc(F)cc2n1C1CCN(C2CCOCC2)CC1 [Compound 44, 1-((5-(5-(difluoromethyl)-1,3,4-oxadiazole-2-yl)pyridine-2-yl)methyl)-5-fluoro-3-(1-(tetrahydro-2H-pyran-4-yl)piperidine-4-yl)-1,3-dihydro-2H-benzo[d]imidazole-2-one]",> 10000,76
"O=c1n(Cc2ccc(-c3nnc(C(F)F)o3)cn2)c2ccc(F)cc2n1C1CCN(C2CCC2)CC1 [Compound 45, 3-(1-cyclobutylpiperidine-4-yl)-1-((5-(5-(difluoromethyl)-1,3,4-oxadiazole-2-yl)pyridine-2-yl)methyl)-5-fluoro-1,3-dihydro-2H-benzo[d]imidazole-2-one]",> 10000,121
"CC(C)N1CCC(n2c(=O)n(Cc3ccc(-c4nnc(C(F)F)o4)cn3)c3ccc(F)cc32)CC1 [Compound 46, 1-((5-(5-(difluoromethyl)-1,3,4-oxadiazole-2-yl)pyridine-2-yl)methyl)-5-fluoro-3-(1-isopropylpiperidine-4-yl)-1,3-dihydro-2H-benzo[d]imidazole-2-one]",> 10000,103
"O=c1n(Cc2ccc(-c3nnc(C(F)F)o3)cn2)c2ccc(F)cc2n1C1CCN(C2CCCCC2)CC1 [Compound 47, 3-(1-cyclohexylpiperidine-4-yl)-1-((5-(5-(difluoromethyl)-1,3,4-oxadiazole-2-yl)pyridine-2-yl)methyl)-5-fluoro-1,3-dihydro-2H-benzo[d]imidazole-2-one]",> 10000,126
"CN1CCC(n2c(=O)n(Cc3ccc(-c4nnc(C(F)F)o4)cn3)c3cc(F)ccc32)CC1 [Compound 48, 3-((5-(5-(difluoromethyl)-1,3,4-oxadiazole-2-yl)pyridine-2-yl)methyl)-5-fluoro-1-(1-methylpiperidine-4-yl)-1,3-dihydro-2H-benzo[d]imidazole-2-one]",> 10000,22
"O=c1n(Cc2ccc(-c3nnc(C(F)F)o3)cn2)c2cc(F)ccc2n1C1CCN(C2CC3(COC3)C2)CC1 [Compound 49, 1-(1-(2-oxaspiro[3.3]heptane-6-yl)piperidine-4-yl)-3-((5-(5-(difluoromethyl)-1,3,4-oxadiazole-2-yl)pyridine-2-yl)methyl)-5-fluoro-1,3-dihydro-2H-benzo[d]imidazole-2-one]",> 10000,35
"CCN1CCC(n2c(=O)n(Cc3ccc(-c4nnc(C(F)F)o4)cn3)c3cc(F)ccc32)CC1 [Compound 50, 3-((5-(5-(difluoromethyl)-1,3,4-oxadiazole-2-yl)pyridine-2-yl)methyl)-1-(1-ethylpiperidine-4-yl)-5-fluoro-1,3-dihydro-2H-benzo[d]imidazole-2-one]",> 10000,39
"CC(C)N1CCC(n2c(=O)n(Cc3ccc(-c4nnc(C(F)F)o4)cn3)c3cc(F)ccc32)CC1 [Compound 51, 3-((5-(5-(difluoromethyl)-1,3,4-oxadiazole-2-yl)pyridine-2-yl)methyl)-5-fluoro-1-(1-isopropylpiperidine-4-yl)-1,3-dihydro-2H-benzo[d]imidazole-2-one]",> 10000,32
"O=c1n(Cc2ccc(-c3nnc(C(F)F)o3)cn2)c2cc(F)ccc2n1C1CCN(C2COC2)CC1 [Compound 53, 3-((5-(5-(difluoromethyl)-1,3,4-oxadiazole-2-yl)pyridine-2-yl)methyl)-5-fluoro-1-(1-(oxetan-3-yl)piperidine-4-yl)-1,3-dihydro-2H-benzo[d]imidazole-2-one]",> 10000,37
"O=c1n(Cc2ccc(-c3nnc(C(F)F)o3)cn2)c2cc(F)ccc2n1C1CCN(C2CCCCC2)CC1 [Compound 54, 1-(1-cyclohexylpiperidine-4-yl)-3-((5-(5-(difluoromethyl)-1,3,4-oxadiazole-2-yl)pyridine-2-yl)methyl)-5-fluoro-1,3-dihydro-2H-benzo[d]imidazole-2-one]",> 10000,39

# — US20230092890A1, “1, 3, 4-Oxadiazole derivative compounds as histone deacetylase 6 inhibitor, and the pharmaceutical composition comprising the same” (Chong Kun Dang Pharmaceutical Corp., priority 2019, published 2023)
